In article PMC5120204, “Identification of an orally active small-molecule PTHR1 agonist for the treatment of hypoparathyroidism” (Nature Communications, 2016):
Like-named read-outs stand apart in the source and are kept apart here.

Columns and labels:
[1] = biological target: T1, hPTHR1–hPTHR2 chimeric receptors (C1, C2, C3) and mutant hPTHR1s (M24, M25, M26, M414V, P415L, L416V) (Homo sapiens, UniProt Q03431, L416V/M414V/P415L); format: cell-based; details: mutant receptor M25 (M414, P415, L416 replaced)
T1 construct: expressed in transfected cells; host or cells: COS-7 (transient)
T1 sequence (Q03431 27-593 E93Y/D94P/K95Y/E96D/A97V/T99D/G100Y/S101A/M414V/P415L/L416V): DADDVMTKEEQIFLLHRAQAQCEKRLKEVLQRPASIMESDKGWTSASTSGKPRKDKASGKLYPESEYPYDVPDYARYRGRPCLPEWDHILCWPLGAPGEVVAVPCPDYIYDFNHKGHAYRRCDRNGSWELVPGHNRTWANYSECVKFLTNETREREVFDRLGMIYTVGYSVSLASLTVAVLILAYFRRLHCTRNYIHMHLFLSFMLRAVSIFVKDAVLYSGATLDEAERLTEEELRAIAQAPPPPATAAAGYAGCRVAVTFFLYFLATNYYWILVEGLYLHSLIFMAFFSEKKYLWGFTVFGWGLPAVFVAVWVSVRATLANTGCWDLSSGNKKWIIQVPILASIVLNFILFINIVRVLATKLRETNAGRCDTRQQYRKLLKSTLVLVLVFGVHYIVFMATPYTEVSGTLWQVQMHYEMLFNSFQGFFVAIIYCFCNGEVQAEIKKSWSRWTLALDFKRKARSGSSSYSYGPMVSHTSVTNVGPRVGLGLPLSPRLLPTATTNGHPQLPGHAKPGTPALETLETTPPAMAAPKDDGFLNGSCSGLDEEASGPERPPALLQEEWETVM
Protocol: (§1) COS-7 cells (ATCC) were seeded into a 96-well flat-bottomed plate (1.4 × 10^4 cells per 100 μl per well) and incubated overnight. The next day, the COS-7 cells were transfected by adding 10 μl of a mixture of hPTHR1, hPTHR2 or mutant hPTHR1 plasmid, rat PTHR1 or rat PTHR2 plasmid, or empty vector (0.1 μg per well), FuGENE HD Transfection Reagent (0.4 μl per well, Promega), and Opti-MEM I Reduced Serum Medium (10 μl per well, Life Technologies) to each well. […] The plate was placed in a 37 °C constant-temperature water bath for 20 min to allow the reaction to proceed. After incubation, the liquid in the wells was discarded, the wells were washed with the assay medium (100 μl per well), and the plate was frozen on dry ice. Next, 40 μl of 50 mmol l^−1 HCl was added to each well, and the plate was stored in a freezer set at ≤−20 °C. The cAMP concentrations were measured by using a cAMP EIA kit (GE Healthcare). EC50 values were determined from three independent experiments in duplicate by a non-linear regression Emax model (JMP ver.9.0.2, SAS Institute). The geometric mean of the EC50 values obtained in three experiments in duplicate was calculated using Microsoft Office Excel 2007. […]

[2] = system: hPTHR1–hPTHR2 chimeric receptors (C1, C2, C3) and mutant hPTHR1s (M24, M25, M26, M414V, P415L, L416V); format: cell-based, human
Protocol: as §1

[3] = Pharmacokinetics in OVX rats; format: in vivo; details: female, Crl:CD(SD), rat, plasma, iv
[4] = biological target: T2, PTHR1 (Rattus norvegicus, UniProt P25961); test: cAMP washout assay in UMR-106 cells; format: cell-based; details: washout 0–120 min
T2 construct: UMR-106 cells, which natively express rat PTHR1; endogenous in cells; host or cells: UMR-106 (ATCC)
T2 sequence (P25961 27-591): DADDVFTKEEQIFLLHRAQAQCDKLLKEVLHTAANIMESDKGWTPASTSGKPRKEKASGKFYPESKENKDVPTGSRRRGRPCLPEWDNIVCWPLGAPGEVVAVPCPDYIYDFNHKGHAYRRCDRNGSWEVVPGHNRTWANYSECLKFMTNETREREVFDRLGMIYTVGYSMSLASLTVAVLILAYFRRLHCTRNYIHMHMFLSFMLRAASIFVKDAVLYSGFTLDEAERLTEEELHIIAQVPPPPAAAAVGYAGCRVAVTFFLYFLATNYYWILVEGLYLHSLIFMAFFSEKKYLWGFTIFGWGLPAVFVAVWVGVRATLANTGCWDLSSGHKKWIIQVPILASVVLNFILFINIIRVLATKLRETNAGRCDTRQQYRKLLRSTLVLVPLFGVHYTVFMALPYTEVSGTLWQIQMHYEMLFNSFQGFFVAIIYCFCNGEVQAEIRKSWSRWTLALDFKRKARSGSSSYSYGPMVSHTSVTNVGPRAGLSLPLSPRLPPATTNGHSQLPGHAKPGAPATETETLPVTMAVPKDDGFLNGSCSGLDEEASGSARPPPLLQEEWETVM
Protocol: The duration of cAMP signalling capacity of PCO371, hPTH(1–34) and LA-PTH (synthesized at American Peptide Company, Inc.) was assessed in a time-course experiment in UMR-106 cells (cAMP washout assay). The cells were treated with assay medium (2 mg m l^−1 BSA, and 2 mmol l^−1 HEPES/McCoy's 5A medium, Life Technologies) alone (basal) or with ligands (1 μmol l^−1 for hPTH(1–34), 0.1 μmol l^−1 for LA-PTH and 0.1 mmol l^−1 for PCO371) in the assay medium for 10 min, washed (t=0), incubated for 0, 30, 60 and 120 min (washout phase), and then further incubated for 5 min in the assay medium containing IBMX (2 mmol l^−1). Incubations were terminated with 50 mmol l^−1 HCl. The cAMP concentrations were determined using a cAMP EIA kit (GE Healthcare).

Cc1cc(N2C(=O)NC(=O)C2(C)C)cc(C)c1CCS(=O)(=O)N1CCC2(CC1)N=C(c1ccc(OC(F)(F)F)cc1)NC2=O [PCO371, 1-{3,5-dimethyl-4-[2-({4-oxo-2-[4-(trifluoromethoxy)phenyl]-1,3,8-triazaspiro[4.5]dec-1-en-8-yl}sulfonyl)ethyl]phenyl}-5,5-dimethylimidazolidine-2,4-dione]
cAMP increase [1]: lack of cAMP increase | cAMP ([2]; cells expressing C1 or C2): did not do so | cAMP response ([2]; single replacements M414V and L416V): only modest effects | concentration at 2 min ([3]; i.v. 3 mg kg-1, read-out: C2min (concentration at 2 min after administration)): 17500 ng/mL | concentration at 2 min ([3]; i.v. 10 mg kg-1, read-out: C2min (concentration at 2 min after administration)): 50100 ng/mL | duration of cAMP-signalling response [4]: much shorter than that of hPTH(1–34)
